# Results: patent US20250243196A1, “CITRON KINASE INHIBITORS” (The Cleveland Clinic Foundation, priority 2021, published 2025)
# pIC50: −log10 of the molar value.
# What was measured:
# Type in all cases: biochemical
# HIPK4 = HIPK4 (Homo sapiens (Human), UniProt Q8NE63); test: KinaseProfiler radiometric assay (15-003KP); settings: mean of at least two independent experiments
# Excerpt: In another aspect, disclosed is a method of inhibiting citron kinase in a sample, comprising contacting the sample with a compound described herein (e.g., a compound of formula (I) or a pharmaceutically acceptable salt thereof), or a pharmaceutical composition described herein (e.g., a pharmaceutical composition comprising a compound of formula (I) or a pharmaceutically acceptable salt thereof), in an amount effective to inhibit citron kinase. In some embodiments, the step of contacting the sample with the compound comprises administering the compound to a subject (e.g., a subject) suffering from cancer. Methods of determining kinase inhibition are well known in the art. For example, kinase activity of an enzyme and the inhibitory capacity of a test compound can be determined by measuring enzyme specific phosphorylation of a substrate. Commercial assays and kits can be employed. For example, kinase inhibition can be determined using a radiometric binding assay, such as using KinaseProfiler™ technology (Eurofins Discovery). This assay method directly detects product formation without the use of modified substrates or coupling enzymes. […]
# (§1) The effect of various compounds on the inhibition of other kinases has also been determined. Table 2 reports measured IC50 values; value units are nanomolar inhibition.
# PKAα = PKAα (Homo sapiens (Human), UniProt P17612); test: KinaseProfiler radiometric assay (14-440KP); settings: mean of at least two independent experiments
# Excerpt: (§2) In another aspect, disclosed is a method of inhibiting citron kinase in a sample, comprising contacting the sample with a compound described herein (e.g., a compound of formula (I) or a pharmaceutically acceptable salt thereof), or a pharmaceutical composition described herein (e.g., a pharmaceutical composition comprising a compound of formula (I) or a pharmaceutically acceptable salt thereof), in an amount effective to inhibit citron kinase. In some embodiments, the step of contacting the sample with the compound comprises administering the compound to a subject (e.g., a subject) suffering from cancer. Methods of determining kinase inhibition are well known in the art. For example, kinase activity of an enzyme and the inhibitory capacity of a test compound can be determined by measuring enzyme specific phosphorylation of a substrate. Commercial assays and kits can be employed. For example, kinase inhibition can be determined using a radiometric binding assay, such as using KinaseProfiler™ technology (Eurofins Discovery). This assay method directly detects product formation without the use of modified substrates or coupling enzymes. Test compounds are incubated with kinase, substrate, required cofactors and radioisotope labeled ATP. Following incubation, unreacted radioactive ATP is removed by washing and incorporation of the radiolabeled phosphate into the kinase substrate is assayed to detect phosphoryltransferase activity, which is directly proportional to the amount of phosphorylated substrate. Inhibition of the kinase by a kinase inhibitor prevents phosphorylation of the substrate and thereby limits the incorporation of radiolabeled phosphate. Such an assay is compatible with a microwell assay format, allowing simultaneous determination of IC50 of multiple compounds.
# as §1
# ROCK-2 = ROCK-2 (Homo sapiens (Human), UniProt O75116); test: KinaseProfiler radiometric assay (14-451KP); settings: mean of at least two independent experiments
# Excerpt: as §2, §1
# BMPR2(h) = BMPR2(h) (Homo sapiens (Human), UniProt Q13873); test: KinaseProfiler panel; design: dose or concentration left out as unconfirmed; settings: activity remaining
# CaMKK1(h) = CaMKK1(h) (Homo sapiens (Human), UniProt Q8N5S9); test: KinaseProfiler panel; design: dose or concentration left out as unconfirmed; settings: activity remaining
# CaMKK1(h), sequence (Q8N5S9 whole entry): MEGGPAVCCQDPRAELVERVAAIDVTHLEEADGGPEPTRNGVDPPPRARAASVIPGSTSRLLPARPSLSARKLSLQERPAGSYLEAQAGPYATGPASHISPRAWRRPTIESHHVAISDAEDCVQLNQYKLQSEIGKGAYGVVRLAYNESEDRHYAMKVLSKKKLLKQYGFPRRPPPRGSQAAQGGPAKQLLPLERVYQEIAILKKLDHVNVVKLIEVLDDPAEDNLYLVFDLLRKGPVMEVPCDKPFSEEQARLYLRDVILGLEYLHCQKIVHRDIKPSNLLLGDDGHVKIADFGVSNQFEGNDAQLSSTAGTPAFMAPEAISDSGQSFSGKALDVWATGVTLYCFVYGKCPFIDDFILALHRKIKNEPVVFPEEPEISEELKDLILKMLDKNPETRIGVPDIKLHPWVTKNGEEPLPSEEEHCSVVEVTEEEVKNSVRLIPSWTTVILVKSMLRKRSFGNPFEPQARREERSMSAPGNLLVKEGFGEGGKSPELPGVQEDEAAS
# CDK2/cyclinA(h) = CDK2/cyclinA(h) (Homo sapiens (Human), UniProt P24941); test: KinaseProfiler panel; design: dose or concentration left out as unconfirmed; settings: activity remaining
# CDK4/cyclinD3(h) = CDK4/cyclinD3(h) (Homo sapiens (Human), UniProt P11802); test: KinaseProfiler panel; design: dose or concentration left out as unconfirmed; settings: activity remaining
# CDK7/cyclinH/MAT1(h) = CDK7/cyclinH/MAT1(h) (Homo sapiens (Human), UniProt P50613); test: KinaseProfiler panel; design: dose or concentration left out as unconfirmed; settings: activity remaining
# CLIK1(h) = CLIK1(h) (Homo sapiens (Human), UniProt Q8TDR2); test: KinaseProfiler panel; design: dose or concentration left out as unconfirmed; settings: activity remaining
# CLIK1(h), sequence (Q8TDR2 whole entry): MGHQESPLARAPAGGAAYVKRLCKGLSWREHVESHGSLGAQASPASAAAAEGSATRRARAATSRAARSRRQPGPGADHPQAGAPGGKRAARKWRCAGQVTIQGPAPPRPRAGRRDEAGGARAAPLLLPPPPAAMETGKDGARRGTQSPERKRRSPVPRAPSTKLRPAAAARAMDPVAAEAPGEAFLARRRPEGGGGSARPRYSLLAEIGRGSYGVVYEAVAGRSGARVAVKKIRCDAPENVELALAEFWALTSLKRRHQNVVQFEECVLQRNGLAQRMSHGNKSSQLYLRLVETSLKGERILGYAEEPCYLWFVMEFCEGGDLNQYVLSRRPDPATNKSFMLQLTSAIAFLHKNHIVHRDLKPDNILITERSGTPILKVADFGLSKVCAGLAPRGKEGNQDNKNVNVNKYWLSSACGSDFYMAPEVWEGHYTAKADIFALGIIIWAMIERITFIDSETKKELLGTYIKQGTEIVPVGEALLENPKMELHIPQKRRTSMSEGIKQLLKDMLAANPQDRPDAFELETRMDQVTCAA
# CLK3(h) = CLK3(h) (Homo sapiens (Human), UniProt P49761); test: KinaseProfiler panel; design: dose or concentration left out as unconfirmed; settings: activity remaining
# EphB1(h) = EphB1(h) (Homo sapiens (Human), UniProt P54762); test: KinaseProfiler panel; design: dose or concentration left out as unconfirmed; settings: activity remaining
# Fes(h) = Fes(h) (Homo sapiens (Human), UniProt P07332); test: KinaseProfiler panel; design: dose or concentration left out as unconfirmed; settings: activity remaining
# Fes(h), sequence (P07332 whole entry): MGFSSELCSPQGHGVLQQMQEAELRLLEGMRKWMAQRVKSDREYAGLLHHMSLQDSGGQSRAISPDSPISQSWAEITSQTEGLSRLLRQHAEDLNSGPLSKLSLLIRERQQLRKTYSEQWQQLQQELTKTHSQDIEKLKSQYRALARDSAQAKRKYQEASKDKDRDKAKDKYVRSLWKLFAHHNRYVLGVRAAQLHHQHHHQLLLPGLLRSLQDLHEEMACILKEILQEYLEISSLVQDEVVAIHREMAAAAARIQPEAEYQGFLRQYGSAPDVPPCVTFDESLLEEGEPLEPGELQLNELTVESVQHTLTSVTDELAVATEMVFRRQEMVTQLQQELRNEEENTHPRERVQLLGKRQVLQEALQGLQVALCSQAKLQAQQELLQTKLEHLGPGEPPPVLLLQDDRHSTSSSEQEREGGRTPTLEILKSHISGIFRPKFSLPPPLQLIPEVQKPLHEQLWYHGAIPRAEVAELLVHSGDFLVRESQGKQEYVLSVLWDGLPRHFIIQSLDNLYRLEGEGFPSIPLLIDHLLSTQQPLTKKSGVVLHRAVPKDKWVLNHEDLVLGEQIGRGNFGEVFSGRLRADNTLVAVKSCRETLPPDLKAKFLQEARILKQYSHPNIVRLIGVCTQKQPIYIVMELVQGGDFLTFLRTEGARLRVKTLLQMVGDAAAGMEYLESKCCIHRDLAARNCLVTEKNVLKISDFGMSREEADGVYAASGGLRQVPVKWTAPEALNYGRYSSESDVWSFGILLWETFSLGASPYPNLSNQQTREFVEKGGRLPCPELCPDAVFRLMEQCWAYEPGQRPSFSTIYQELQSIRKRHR
# LTK(h) = LTK(h) (Homo sapiens (Human), UniProt P29376); test: KinaseProfiler panel; design: dose or concentration left out as unconfirmed; settings: activity remaining
# MKK3(h) = MKK3(h) (Homo sapiens (Human), UniProt P46734); test: KinaseProfiler panel; design: dose or concentration left out as unconfirmed; settings: activity remaining
# MKK3(h), sequence (P46734 whole entry): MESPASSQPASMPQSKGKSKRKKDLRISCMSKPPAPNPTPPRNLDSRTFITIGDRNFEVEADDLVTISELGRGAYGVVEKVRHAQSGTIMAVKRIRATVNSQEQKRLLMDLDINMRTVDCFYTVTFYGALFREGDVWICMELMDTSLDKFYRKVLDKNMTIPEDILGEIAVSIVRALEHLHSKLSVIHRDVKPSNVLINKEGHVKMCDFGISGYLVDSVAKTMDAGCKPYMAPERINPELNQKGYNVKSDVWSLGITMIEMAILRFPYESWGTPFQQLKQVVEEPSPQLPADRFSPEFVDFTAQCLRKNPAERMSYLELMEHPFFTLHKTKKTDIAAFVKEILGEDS
# MST4(h) = MST4(h) (Homo sapiens (Human), UniProt Q9P289); test: KinaseProfiler panel; design: dose or concentration left out as unconfirmed; settings: activity remaining
# MST4(h), sequence (Q9P289 whole entry): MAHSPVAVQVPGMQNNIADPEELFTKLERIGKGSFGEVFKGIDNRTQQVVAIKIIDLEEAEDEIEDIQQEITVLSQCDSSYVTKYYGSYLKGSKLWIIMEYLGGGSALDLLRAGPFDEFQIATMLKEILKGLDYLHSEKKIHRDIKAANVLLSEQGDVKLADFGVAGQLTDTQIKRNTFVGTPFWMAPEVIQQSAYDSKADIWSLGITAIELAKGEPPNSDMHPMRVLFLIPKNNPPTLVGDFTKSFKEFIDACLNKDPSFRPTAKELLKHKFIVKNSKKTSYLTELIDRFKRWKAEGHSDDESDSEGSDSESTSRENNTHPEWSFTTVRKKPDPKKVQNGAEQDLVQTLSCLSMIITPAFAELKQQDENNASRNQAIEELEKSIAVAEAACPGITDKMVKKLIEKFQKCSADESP
# NUAK2(h) = NUAK2(h) (Homo sapiens (Human), UniProt Q9H093); test: KinaseProfiler panel; design: dose or concentration left out as unconfirmed; settings: activity remaining
# NUAK2(h), sequence (Q9H093 whole entry): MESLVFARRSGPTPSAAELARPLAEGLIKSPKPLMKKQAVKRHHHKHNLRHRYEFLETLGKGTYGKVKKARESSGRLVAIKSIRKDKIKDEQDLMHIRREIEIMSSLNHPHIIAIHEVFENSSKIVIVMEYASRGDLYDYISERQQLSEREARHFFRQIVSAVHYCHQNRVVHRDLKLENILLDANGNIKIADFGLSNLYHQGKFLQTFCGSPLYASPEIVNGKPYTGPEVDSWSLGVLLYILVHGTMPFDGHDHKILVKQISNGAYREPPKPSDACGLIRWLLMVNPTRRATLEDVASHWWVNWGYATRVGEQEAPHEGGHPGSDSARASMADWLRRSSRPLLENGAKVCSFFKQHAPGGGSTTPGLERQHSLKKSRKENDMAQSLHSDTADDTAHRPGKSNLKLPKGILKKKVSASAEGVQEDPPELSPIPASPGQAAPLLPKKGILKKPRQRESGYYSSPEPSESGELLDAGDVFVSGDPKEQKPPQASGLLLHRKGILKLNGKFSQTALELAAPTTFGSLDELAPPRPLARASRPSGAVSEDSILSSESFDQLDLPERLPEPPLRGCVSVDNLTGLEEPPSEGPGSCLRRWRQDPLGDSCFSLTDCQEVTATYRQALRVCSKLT
# PAK4(h) = PAK4(h) (Homo sapiens (Human), UniProt O96013); test: KinaseProfiler panel; design: dose or concentration left out as unconfirmed; settings: activity remaining
# PAK4(h), sequence (O96013 whole entry): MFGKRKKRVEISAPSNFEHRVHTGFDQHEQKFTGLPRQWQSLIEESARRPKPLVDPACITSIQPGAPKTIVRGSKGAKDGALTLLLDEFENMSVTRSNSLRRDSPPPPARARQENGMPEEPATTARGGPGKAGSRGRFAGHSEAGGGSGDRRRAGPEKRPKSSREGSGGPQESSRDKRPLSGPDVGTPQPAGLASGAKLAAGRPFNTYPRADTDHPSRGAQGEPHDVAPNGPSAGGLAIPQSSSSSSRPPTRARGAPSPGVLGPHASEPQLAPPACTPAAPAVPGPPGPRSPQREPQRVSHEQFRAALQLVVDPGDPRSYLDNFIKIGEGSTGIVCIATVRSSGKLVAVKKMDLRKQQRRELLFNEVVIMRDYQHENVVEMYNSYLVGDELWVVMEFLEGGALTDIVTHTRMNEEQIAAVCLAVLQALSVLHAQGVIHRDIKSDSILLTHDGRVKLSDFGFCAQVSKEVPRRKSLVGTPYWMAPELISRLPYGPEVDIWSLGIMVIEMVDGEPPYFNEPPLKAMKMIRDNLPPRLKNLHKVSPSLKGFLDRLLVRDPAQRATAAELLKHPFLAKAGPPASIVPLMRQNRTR
# PAR-1Bα(h) = PAR-1Bα(h) (Homo sapiens (Human), UniProt Q7KZI7); test: KinaseProfiler panel; design: dose or concentration left out as unconfirmed; settings: activity remaining
# PKG1β(h) = PKG1β(h) (Homo sapiens (Human), UniProt Q13976); test: KinaseProfiler panel; design: dose or concentration left out as unconfirmed; settings: activity remaining
# PRKG2(h) = PRKG2(h) (Homo sapiens (Human), UniProt Q13237); test: KinaseProfiler panel; design: dose or concentration left out as unconfirmed; settings: activity remaining
# Rse(h) = Rse(h) (Homo sapiens (Human), UniProt Q06418); test: KinaseProfiler panel; design: dose or concentration left out as unconfirmed; settings: activity remaining
# Rse(h), sequence (Q06418 41-890): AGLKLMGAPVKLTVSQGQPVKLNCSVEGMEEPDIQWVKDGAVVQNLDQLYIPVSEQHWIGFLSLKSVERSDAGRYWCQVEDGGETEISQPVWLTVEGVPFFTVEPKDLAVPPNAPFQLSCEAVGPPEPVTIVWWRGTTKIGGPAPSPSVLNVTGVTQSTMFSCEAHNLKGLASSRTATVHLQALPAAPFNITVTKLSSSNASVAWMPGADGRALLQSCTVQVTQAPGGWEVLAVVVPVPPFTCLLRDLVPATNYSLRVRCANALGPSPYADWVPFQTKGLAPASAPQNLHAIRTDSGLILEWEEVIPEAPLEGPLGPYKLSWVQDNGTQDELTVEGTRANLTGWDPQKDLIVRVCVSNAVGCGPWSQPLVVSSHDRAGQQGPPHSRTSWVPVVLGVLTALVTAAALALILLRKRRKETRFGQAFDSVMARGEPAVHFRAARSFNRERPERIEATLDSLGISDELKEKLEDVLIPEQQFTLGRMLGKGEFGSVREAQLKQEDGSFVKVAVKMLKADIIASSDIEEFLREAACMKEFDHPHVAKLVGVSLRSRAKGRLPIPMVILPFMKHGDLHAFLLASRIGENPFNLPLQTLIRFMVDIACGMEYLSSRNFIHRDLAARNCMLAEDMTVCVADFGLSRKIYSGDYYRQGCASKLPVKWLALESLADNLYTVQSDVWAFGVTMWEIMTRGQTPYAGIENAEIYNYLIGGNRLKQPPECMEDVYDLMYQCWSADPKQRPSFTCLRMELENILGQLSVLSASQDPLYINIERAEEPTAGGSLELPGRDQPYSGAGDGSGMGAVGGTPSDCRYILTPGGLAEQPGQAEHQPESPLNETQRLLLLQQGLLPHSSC
# SAPK3(h) = SAPK3(h) (Homo sapiens (Human), UniProt P53778); test: KinaseProfiler panel; design: dose or concentration left out as unconfirmed; settings: activity remaining
# Syk(h) = Syk(h) (Homo sapiens (Human), UniProt P43405); test: KinaseProfiler panel; design: dose or concentration left out as unconfirmed; settings: activity remaining
# TLK2(h) = TLK2(h) (Homo sapiens (Human), UniProt Q86UE8); test: KinaseProfiler panel; settings: activity remaining
# Wee1(h) = Wee1(h) (Homo sapiens (Human), UniProt P30291); test: KinaseProfiler panel; design: dose or concentration left out as unconfirmed; settings: activity remaining
# Yes(h) = Yes(h) (Homo sapiens (Human), UniProt P07947); test: KinaseProfiler panel; design: dose or concentration left out as unconfirmed; settings: activity remaining
smiles,measurement,setting,value
"Cc1cc2c(-c3ccc(NC(=O)[C@H](N)CC(C)(C)C)cc3C)ccnc2[nH]1 [Compound F-90, (2R)-2-Amino-4,4-dimethyl-N-[3-methyl-4-(2-methyl-1H-pyrrolo[2,3-b]pyridin-4-yl)phenyl]pentanamide]",pIC50,HIPK4,5.64
same,pIC50,PKAα,< 5.52
same,pIC50,ROCK-2,< 5.52
same,% Activity,BMPR2(h),85%
same,% Activity,CaMKK1(h),89%
same,% Activity,CDK2/cyclinA(h),87%
same,% Activity,CDK4/cyclinD3(h),74%
same,% Activity,CDK7/cyclinH/MAT1(h),95%
same,% Activity,CLIK1(h),97%
same,% Activity,CLK3(h),107%
same,% Activity,EphB1(h),83%
same,% Activity,Fes(h),111%
same,% Activity,LTK(h),97%
same,% Activity,MKK3(h),97%
same,% Activity,MST4(h),106%
same,% Activity,NUAK2(h),72%
same,% Activity,PAK4(h),83%
same,% Activity,PAR-1Bα(h),88%
same,% Activity,PKG1β(h),92%
same,% Activity,PRKG2(h),110%
same,% Activity,Rse(h),129%
same,% Activity,SAPK3(h),113%
same,% Activity,Syk(h),66%
same,% Activity,TLK2(h),92%
same,% Activity,Wee1(h),94%
same,% Activity,Yes(h),87%
